# Experiments:
# [1] = tested on: Human breast cancer cells (BCAP-37); assay: Human breast cancer xenograft in nude mice
# Description: Human breast cancer cells (BCAP-37, 2-3 mm^3 of tumor tissue was used in each mouse) were subcutaneously xenografted into nude mice (BALB, 12 groups, 7 mice each group). […] 50 μl of 5% (equal to 2.5 mg of the HPCs) diethylaminoethyl acetylsalicylate.HCl (P-1, in pure water); 1-piperidinepropyl 2[(2,6-dichlorophenyl)amino]benzene acetate.HCl (P-2, in water), 1-pyrrolidinepropyl 2-(3-benzoylphenyl) propionate.HCl (P-3, in water), 4-piperidinemethyl 2-(3-phenoxyphenyl)propionate.HCl (P-4, in water), 3-piperidinemethyl 2-(ρ-isobutylphenyl) propionate.HCl (P-5, in water), diethylaminoethyl 1-(p-chlorobenzoyl)-5-methoxy-2-methylindole 3-acetate.HCl (P-11, in water), 2-(4-morpholinyl)ethyl (Z)-5-fluoro-2-methyl-1-[(4-methylsulfinyl)phenylmethylene]-1H-indene-3-acetate.
# [2] = tested on: human myeloma cell line implanted into mice; assay: Survival of mice with multiple myeloma (Example 110, Study B); format: in vivo; details: n=5
# Description: Study B: For evaluation of antitumor activity, a human myeloma cell line derived from the ascites of a patient with multiple myeloma was implanted into mice. The experiment was carried out on 17 groups of mice. Control group (A, orally), chlorambucil (group B1: 1 mg/kg, orally, group B2, 3 mg/kg, orally, group B3:1 mg/kg, transdermally, and group B4: 3 mg/kg, transdermally), melphalan (group C1: 1 mg/kg, orally, group C2, 3 mg/kg, orally, group C3:1 mg/kg, transdermally, and group C4: 3 mg/kg, transdermally), N,N-diethylaminoethyl 4-[bis(2-chloroethyl)amino]benzenebutyrate.HBr (the HPC of chlorambucil (group D1: 1 mg/kg, orally, group D2, 3 mg/kg, orally, group D3:1 mg/kg, transdermally, and group D4: 3 mg/kg, transdermally), and 4-[bis(2-chloroethyl)amino]-N-acetyl-L-phenylalanine N,N-diethylaminoethyl ester hydrobromide (the HPC of melphalan) (group E1: 1 mg/kg, orally, group E2, 3 mg/kg, orally, group E3:1 mg/kg, transdermally, and group E4: 3 mg/kg, transdermally).
# [3] = tested on: human myeloma cell line implanted into mice; assay: Survival and weight loss of myeloma mice (Example 111); format: in vivo; details: for Weight Loss: day 21; for Life Elongation Rate / None Disease Rate / Survival Period: n=7
# Text: A human myeloma cell line derived from the ascites of a patient with multiple myeloma was implanted into mice. The mice was divided into 11 groups: control group (A, orally), melphalan (B1 and B2, orally), chlorambucil (C1 and C2, orally), N,N-diethylaminoethyl 4-[bis(2-chloroethyl)amino]benzenebutyrate.HBr (D1 and D2, transdermally), 4-[bis(2-chloroethyl)amino]-N-acetyl-L-phenylalanine N,N-diethylaminoethyl ester hydrobromide (E1 and E2, transdermally in 5% aqueous solution), and diethylaminoethyl 4-[bis(2-methylsulfonylethyl)amino]benzenebutyrate.HCl (F1 and F2, transdermally in 5% aqueous solution). The body weight loss of mice was determined on day 21.
# [4] = Distribution in organs of rats killed with CO2 (absence of general circulation); details: 5 hrs after 0.3 mmol/kg diethylaminoethyl acetylsalicylate HCl salt on back of killed rats;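 note: tissue concentration in nmol/g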
# Description: 0.3 mmol/kg of diethylaminoethyl acetylsalicylate HCl salt (10% in pure water) was applied to the back of rats (10 cm^2) which were killed with CO2. The rats were shaken for 5 hrs, then the HPCs and parent drugs in organs of rats were determined.
# [5] = 50 μl of 5% topically every 8 hours
# [6] = 1.5 mg/kg per day, transdermally
# [7] = 50 μl of 5% topically every 8 hours, in g (unit assumed)
smiles,measurement,setting,value
"CC1=C(CC(=O)OCCN2CCOCC2)c2cc(F)ccc2/C1=C\c1ccc([S+](C)[O-])cc1.Cl (stereo not drawn) [P-12, 2-(4-morpholinyl)ethyl (Z)-5-fluoro-2-methyl-1-[(4-methylsulfinyl)phenylmethylene]-1H-indene-3-acetate. HCl]",tumor Size at day 42,[1]; [5],240 ± 60 mm^3
same,Weight of mice at day 42,[1]; in vivo,23 ± 3
"CN(C)CCCC(=O)OC1=C(C(=O)Nc2ccccn2)N(C)S(=O)(=O)c2ccccc21.Cl [P-51, 4-N,N-dimethylaminobutyryloxy-2-methyl-N-2-pyridinyl-2H,1,2-benzothiazine-3-carboxamide 1,1-dioxide.HCl]",tumor Size at day 42,[1]; [5],390 ± 55 mm^3
same,Weight of mice at day 42,[1]; in vivo,23 ± 2
"Br.CCN(CC)CCOC(=O)CCCc1ccc(N(CCCl)CCCl)cc1 [N,N-diethylaminoethyl 4-[bis(2-chloroethyl)amino]benzenebutyrate.HBr]",Life Elongation Rate,"[2]; 1 mg/kg per day, orally",158%
same,Survival Period,"[2]; 1 mg/kg per day, orally",71.7 ± 3.3 days
same,Life Elongation Rate,"[2]; 1 mg/kg per day, transdermally",188%
same,Survival Period,"[2]; 1 mg/kg per day, transdermally",85.7 ± 4.4 days
same,Life Elongation Rate,"[2]; 3 mg/kg per day, orally",194%
same,Survival Period,"[2]; 3 mg/kg per day, orally",88.5 ± 3.2 days
same,Life Elongation Rate,"[2]; 3 mg/kg per day, transdermally",201%
same,Survival Period,"[2]; 3 mg/kg per day, transdermally",91.5 ± 4.7 days
same,Weight Loss,[3]; [6],7%
same,Life Elongation Rate,[3]; [6],282%
same,None Disease Rate,[3]; [6],4/7
same,Survival Period,[3]; [6],122.5 ± 7.3 days
same,Weight Loss,"[3]; 3 mg/kg per day, transdermally",10%
same,Life Elongation Rate,"[3]; 3 mg/kg per day, transdermally",269%
same,None Disease Rate,"[3]; 3 mg/kg per day, transdermally",4/7
same,Survival Period,"[3]; 3 mg/kg per day, transdermally",117.2 ± 6.1 days
"CCN(CC)CCOC(=O)C(C)c1ccc2c(c1)C(=O)Cc1cc(C)ccc1O2.Cl (stereo not drawn) [P-37, diethylaminoethyl 2-(8-methyl-10,11-dihydro-11-oxodibenz(b,f)oxepin-2-yl)propionate.HCl]",tumor Size at day 42,[1]; [5],270 ± 70 mm^3
same,Weight of mice at day 42,[1]; in vivo,23 ± 3
"CCN(CC)CCOC(=O)Cc1c(C)n(C(=O)c2ccc(Cl)cc2)c2ccc(OC)cc12.Cl [P-11, diethylaminoethyl 1-(p-chlorobenzoyl)-5-methoxy-2-methylindole 3-acetate.HCl]",tumor Size at day 42,[1]; [5],230 ± 105 mm^3
same,Weight of mice at day 42,[1]; [7],23 ± 2
CCN(CC)CCOC(=O)CCCc1ccc(N(CCS(C)(=O)=O)CCS(C)(=O)=O)cc1.Cl [diethylaminoethyl 4-[bis(2-methylsulfonylethyl)amino]benzenebutyrate.HCl],Weight Loss,[3]; [6],7%
same,Life Elongation Rate,[3]; [6],259%
same,None Disease Rate,[3]; [6],4/7
same,Survival Period,[3]; [6],112.5 ± 8.7 days
same,Weight Loss,"[3]; 3 mg/kg per day, transdermally",11%
same,Life Elongation Rate,"[3]; 3 mg/kg per day, transdermally",256%
same,None Disease Rate,"[3]; 3 mg/kg per day, transdermally",3/7
same,Survival Period,"[3]; 3 mg/kg per day, transdermally",111.2 ± 5.9 days
"Br.CCN(CC)CCOC(=O)[C@H](Cc1ccc(N(CCCl)CCCl)cc1)NC(C)=O [4-[bis(2-chloroethyl)amino]-N-acetyl-L-phenylalanine N,N-diethylaminoethyl ester hydrobromide]",Life Elongation Rate,"[2]; 1 mg/kg per day, orally",151%
same,Survival Period,"[2]; 1 mg/kg per day, orally",68.7 ± 5.1 days
same,Life Elongation Rate,"[2]; 1 mg/kg per day, transdermally",190%
same,Survival Period,"[2]; 1 mg/kg per day, transdermally",86.7 ± 4.5 days
same,Life Elongation Rate,"[2]; 3 mg/kg per day, orally",187%
same,Survival Period,"[2]; 3 mg/kg per day, orally",85.2 ± 4.3 days
same,Life Elongation Rate,"[2]; 3 mg/kg per day, transdermally",192%
same,Survival Period,"[2]; 3 mg/kg per day, transdermally",87.5 ± 4.2 days
same,Weight Loss,[3]; [6],5%
same,Life Elongation Rate,[3]; [6],272%
same,None Disease Rate,[3]; [6],4/7
same,Survival Period,[3]; [6],118.5 ± 7.6 days
same,Weight Loss,"[3]; 3 mg/kg per day, transdermally",9%
same,Life Elongation Rate,"[3]; 3 mg/kg per day, transdermally",265%
same,None Disease Rate,"[3]; 3 mg/kg per day, transdermally",3/7
same,Survival Period,"[3]; 3 mg/kg per day, transdermally",115.2 ± 6.8 days
O=C(O)c1ccccc1O [salicylic acid],concentration in Leg muscle,[4],41.4 ± 11.2 nmol/g
same,concentration in kidney,[4],21.2 ± 7.6 nmol/g
same,concentration in liver,[4],12.2 ± 6.1 nmol/g
same,concentration in pancreas,[4],14.1 ± 1.2 nmol/g
same,concentration in stomach,[4],25.1 ± 2.4 nmol/g
"N[C@@H](Cc1ccc(N(CCCl)CCCl)cc1)C(=O)O [melphalan, reference compound]",Life Elongation Rate,"[2]; 1 mg/kg per day, orally",106%
same,Survival Period,"[2]; 1 mg/kg per day, orally",48.1 ± 5.3 days
same,Life Elongation Rate,"[2]; 1 mg/kg per day, transdermally",98%
same,Survival Period,"[2]; 1 mg/kg per day, transdermally",44.7 ± 3.6 days
same,Life Elongation Rate,"[2]; 3 mg/kg per day, orally",155%
same,Survival Period,"[2]; 3 mg/kg per day, orally",70.5 ± 3.2 days
same,Life Elongation Rate,"[2]; 3 mg/kg per day, transdermally",100%
same,Survival Period,"[2]; 3 mg/kg per day, transdermally",45.6 ± 3.6 days
same,Weight Loss,"[3]; 1.5 mg/kg per day, orally",10%
same,Life Elongation Rate,"[3]; 1.5 mg/kg per day, orally",121%
same,None Disease Rate,"[3]; 1.5 mg/kg per day, orally",0/7
same,Survival Period,"[3]; 1.5 mg/kg per day, orally",52.7 ± 4.3 days
same,Weight Loss,"[3]; 3 mg/kg per day, orally",20%
same,Life Elongation Rate,"[3]; 3 mg/kg per day, orally",192%
same,None Disease Rate,"[3]; 3 mg/kg per day, orally",2/7
same,Survival Period,"[3]; 3 mg/kg per day, orally",83.5 ± 5.8 days
"CCN(CC)CCOC(=O)Cc1ccccc1Oc1ccc(Cl)cc1Cl.Cl [P-19, diethylaminoethyl 2-(2,4-dichlorophenoxy)benzeneacetate.HCl]",tumor Size at day 42,[1]; [5],260 ± 55 mm^3
same,Weight of mice at day 42,[1]; in vivo,22 ± 2
CCN(CC)CCOc1ccccc1C(=O)O [diethylaminoethyl salicylic acid],concentration in Leg muscle,[4],6.2 ± 3.2 nmol/g
same,concentration in kidney,[4],3.1 ± 1.6 nmol/g
same,concentration in liver,[4],1.5 ± 1.2 nmol/g
same,concentration in pancreas,[4],3.1 ± 1.1 nmol/g
same,concentration in stomach,[4],3.2 ± 1.3 nmol/g
Cl.O=C(OCCCN1CCCC1)c1ccccc1Nc1cccc(C(F)(F)F)c1 [P-48],tumor Size at day 42,[1]; [5],280 ± 50 mm^3
same,Weight of mice at day 42,[1]; [7],22 ± 3

# Source: patent publication US11541029B2, “High penetration compositions and their applications” (Techfields Pharma Co., Ltd., priority 2008, dated 2023)
